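A five-concentration, 48-hour dose response in 96-well plates underlies each endpoint, interpolated linearly between surrounding concentrations. TGI marks complete inhibition of growth.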
Tests used:
Assay in all cases: NCI tumour cell line growth inhibition, 48 h
[1] = test system: MDA-MB-231 breast
[2] = test system: OVCAR-8 ovarian
[3] = test system: HT29 colon
[4] = test system: CAKI-1 renal
[5] = test system: SK-MEL-28 melanoma
[6] = test system: MDA-N
[7] = test system: SNB-75 CNS
[8] = test system: SNB-19 CNS
[9] = test system: UO-31 renal
[10] = test system: SF-539 CNS
[11] = test system: LOX IMVI melanoma
[12] = test system: CCRF-CEM leukemia
[13] = test system: SW-620 colon
[14] = test system: HS 578T breast
[15] = test system: IGROV1 ovarian
[16] = test system: EKVX NSCLC
[17] = test system: NCI-H460 lung
[18] = test system: A549 NSCLC
[19] = test system: ACHN renal
[20] = test system: HCT-15 colon
[21] = test system: SK-OV-3 ovarian
[22] = test system: BT-549 breast
[23] = test system: SK-MEL-2 melanoma
[24] = test system: MALME-3M melanoma
[25] = test system: SF-295 CNS
[26] = test system: NCI/ADR-RES ovarian
[27] = test system: UACC-257 melanoma
[28] = test system: HCT-116 colon
[29] = test system: OVCAR-5 ovarian
[30] = test system: HCC-2998 colon
[31] = test system: SN12C renal
[32] = test system: COLO 205 colon
[33] = test system: TK-10 renal
[34] = test system: M14 melanoma
[35] = test system: MCF7 breast
[36] = test system: OVCAR-4 ovarian
[37] = test system: MOLT-4 leukemia
[38] = test system: T-47D breast
[39] = test system: HOP-92 NSCLC
[40] = test system: MDA-MB-435
[41] = test system: 786-0 renal
[42] = test system: SF-268 CNS
[43] = test system: DU-145 prostate
[44] = test system: OVCAR-3 ovarian
[45] = test system: PC-3 prostate
[46] = test system: NCI-H23 lung
[47] = test system: NCI-H522 lung
[48] = test system: RXF 393 renal
[49] = test system: UACC-62 melanoma
[50] = test system: HL-60(TB) leukemia
[51] = test system: RPMI-8226 leukemia
[52] = test system: KM12 colon
[53] = test system: K-562 leukemia
[54] = test system: A498 renal
[55] = test system: U251 CNS
[56] = test system: HOP-62 NSCLC
[57] = test system: NCI-H226 lung
[58] = test system: SK-MEL-5 melanoma

Molecule `COc1ccc(C(=O)N(C(=S)OCCOc2ccccc2)c2ccccc2)cc1` has a TGI [1] of over 100 µM, a TGI [2] of over 100 µM and a TGI [3] of over 100 µM. The TGI [4] was over 100 µM, the TGI [5] was over 100 µM and the TGI [6] was over 100 µM. It also gave a TGI [7] of 27.9 µM, a TGI [8] of over 100 µM and a TGI [9] of 29.9 µM. For the same molecule, the TGI [10] was over 100 µM, the TGI [11] was over 100 µM and the TGI [12] was 66.3 µM. For the same molecule, the TGI [13] was over 100 µM, the TGI [14] was over 100 µM and the TGI [15] was over 100 µM. The TGI [16] was 96.6 µM, the TGI [17] was over 100 µM and the TGI [18] was over 100 µM. The TGI [19] was over 100 µM, the TGI [20] was over 100 µM and the TGI [21] was over 100 µM. The TGI [22] was over 100 µM, the TGI [23] was 68.5 µM and the TGI [24] was 88.5 µM. The TGI [25] was over 100 µM, the TGI [26] was over 100 µM and the TGI [27] was over 100 µM. It also gave a TGI [28] of over 100 µM, a TGI [29] of over 100 µM and a TGI [30] of over 100 µM. For the same molecule, the TGI [31] was over 100 µM, the TGI [32] was over 100 µM and the TGI [33] was over 100 µM. It also gave a TGI [34] of over 100 µM, a TGI [35] of over 100 µM and a TGI [36] of over 100 µM. It also gave a TGI [37] of 53.8 µM, a TGI [38] of 55.4 µM and a TGI [39] of 70.4 µM. For the same molecule, the TGI [40] was over 100 µM, the TGI [41] was over 100 µM and the TGI [42] was over 100 µM. The TGI [43] was over 100 µM, the TGI [44] was over 100 µM and the TGI [45] was over 100 µM. For the same molecule, the TGI [46] was over 100 µM, the TGI [47] was over 100 µM and the TGI [48] was 98.5 µM. The TGI [49] was over 100 µM, the TGI [50] was 51.9 µM and the TGI [51] was 37.9 µM. For the same molecule, the TGI [52] was over 100 µM, the TGI [53] was over 100 µM and the TGI [54] was 73.9 µM. It also gave a TGI [55] of over 100 µM and a TGI [56] of over 100 µM.

`CC(C)/C(Cl)=N\OC(=O)Nc1ccc(F)cc1F` gave a TGI [1] of 6.34 µM, a TGI [2] of 31.6 µM and a TGI [3] of 15.8 µM. It also gave a TGI [4] of 34.3 µM, a TGI [5] of 25.4 µM and a TGI [6] of 22.7 µM. The TGI [7] was 33.6 µM, the TGI [8] was 34.8 µM and the TGI [9] was 17.8 µM. The TGI [10] was 30.6 µM, the TGI [11] was 3.32 µM and the TGI [12] was over 21.7 µM. The TGI [13] was 3.31 µM, the TGI [14] was 52.7 µM and the TGI [15] was 30.9 µM. It also gave a TGI [16] of 13.8 µM, a TGI [17] of 43.1 µM and a TGI [18] of 34.6 µM. It also gave a TGI [19] of 8.53 µM, a TGI [20] of 21.8 µM and a TGI [21] of 30.8 µM. For the same molecule, the TGI [22] was 25.9 µM, the TGI [23] was 28.2 µM and the TGI [24] was 3.58 µM. For the same molecule, the TGI [25] was 28.3 µM, the TGI [26] was 21.2 µM and the TGI [27] was 27.7 µM. For the same molecule, the TGI [28] was 15.7 µM, the TGI [29] was 33.5 µM and the TGI [30] was 34 µM. It also gave a TGI [31] of 21.1 µM, a TGI [32] of 3.52 µM and a TGI [33] of 9.55 µM. For the same molecule, the TGI [34] was 13.3 µM, the TGI [35] was 13.4 µM and the TGI [57] was 29.8 µM. The TGI [36] was 10.3 µM, the TGI [37] was 3.99 µM and the TGI [38] was 47.3 µM. It also gave a TGI [39] of 3.61 µM, a TGI [41] of 13.3 µM and a TGI [42] of 38.9 µM. It also gave a TGI [43] of 31.7 µM, a TGI [44] of 6.69 µM and a TGI [45] of 31.6 µM. For the same molecule, the TGI [46] was 30.1 µM, the TGI [58] was 27.4 µM and the TGI [48] was 12.6 µM. It also gave a TGI [49] of 38.7 µM, a TGI [50] of 0.626 µM and a TGI [51] of 75.2 µM. For the same molecule, the TGI [52] was 35.1 µM, the TGI [53] was over 100 µM and the TGI [54] was 31.1 µM. For the same molecule, the TGI [55] was 32.8 µM and the TGI [56] was 31.8 µM.

Work on `O=C(O)CC1OCC=C2CN3CCC45C6=CC(=O)C(=O)C([N+](=O)[O-])=C6NC4C1C2CC35` (stereo not given) yielded a TGI [1] of over 100 µM, a TGI [2] of over 100 µM and a TGI [3] of over 100 µM. For the same molecule, the TGI [4] was over 100 µM, the TGI [5] was over 100 µM and the TGI [6] was over 100 µM. The TGI [7] was over 100 µM, the TGI [8] was over 100 µM and the TGI [9] was over 100 µM. The TGI [10] was over 100 µM, the TGI [11] was over 100 µM and the TGI [12] was 61.8 µM. It also gave a TGI [13] of over 100 µM, a TGI [14] of over 100 µM and a TGI [15] of over 100 µM. For the same molecule, the TGI [16] was over 100 µM, the TGI [17] was over 100 µM and the TGI [18] was over 100 µM. The TGI [19] was over 100 µM, the TGI [20] was over 100 µM and the TGI [21] was over 100 µM. For the same molecule, the TGI [22] was over 100 µM, the TGI [23] was over 100 µM and the TGI [24] was over 100 µM. The TGI [25] was over 100 µM, the TGI [26] was over 100 µM and the TGI [27] was over 100 µM. It also gave a TGI [28] of over 100 µM, a TGI [29] of over 100 µM and a TGI [30] of over 100 µM. For the same molecule, the TGI [31] was over 100 µM, the TGI [32] was over 100 µM and the TGI [33] was over 100 µM. The TGI [34] was over 100 µM, the TGI [35] was over 100 µM and the TGI [57] was over 100 µM. It also gave a TGI [36] of over 100 µM, a TGI [37] of over 100 µM and a TGI [38] of over 100 µM. For the same molecule, the TGI [39] was over 100 µM, the TGI [40] was 31.3 µM and the TGI [41] was over 100 µM. For the same molecule, the TGI [42] was over 100 µM, the TGI [43] was over 100 µM and the TGI [44] was over 100 µM. The TGI [45] was over 100 µM, the TGI [46] was over 100 µM and the TGI [47] was over 100 µM. For the same molecule, the TGI [58] was over 100 µM, the TGI [48] was over 100 µM and the TGI [49] was over 100 µM. It also gave a TGI [50] of over 100 µM, a TGI [51] of over 100 µM and a TGI [52] of over 100 µM. The TGI [53] was over 100 µM, the TGI [54] was over 100 µM and the TGI [55] was over 100 µM. It also gave a TGI [56] of over 100 µM.

`CCOC(=O)C1(C/C=C\CBr)CCCCCCCCCCC1=O` (stereo not given) showed a TGI [1] of 17.8 µM, a TGI [2] of 31.4 µM and a TGI [3] of 34.3 µM. It also gave a TGI [4] of 27.2 µM, a TGI [5] of 30.7 µM and a TGI [6] of 38.4 µM. The TGI [7] was 26.9 µM, the TGI [8] was 36.6 µM and the TGI [9] was 15.2 µM. It also gave a TGI [10] of 14.8 µM, a TGI [11] of 1.66 µM and a TGI [13] of 30.1 µM. The TGI [14] was 43.2 µM, the TGI [15] was 11.5 µM and the TGI [16] was 34.4 µM. It also gave a TGI [17] of 33 µM, a TGI [18] of over 53 µM and a TGI [19] of 32 µM. For the same molecule, the TGI [20] was 32.8 µM, the TGI [21] was 31.2 µM and the TGI [22] was 31.7 µM. The TGI [23] was 36.5 µM, the TGI [24] was 19.1 µM and the TGI [25] was 31.7 µM. For the same molecule, the TGI [26] was 39.2 µM, the TGI [27] was 31.3 µM and the TGI [28] was over 54.2 µM. For the same molecule, the TGI [29] was 35.2 µM, the TGI [30] was 30.2 µM and the TGI [31] was 28.4 µM. The TGI [32] was 33.7 µM, the TGI [33] was 22.8 µM and the TGI [34] was 55 µM. For the same molecule, the TGI [35] was 42.3 µM, the TGI [57] was 16.6 µM and the TGI [36] was 27.4 µM. It also gave a TGI [37] of over 27 µM, a TGI [38] of 29.7 µM and a TGI [40] of 29.8 µM. The TGI [41] was over 53 µM, the TGI [42] was 27.6 µM and the TGI [43] was 31.9 µM. The TGI [44] was 9.75 µM, the TGI [45] was 25.1 µM and the TGI [46] was 26.2 µM. It also gave a TGI [47] of 1.04 µM, a TGI [58] of 26.5 µM and a TGI [48] of 25.4 µM. The TGI [49] was 31.9 µM, the TGI [51] was 9.02 µM and the TGI [52] was 28.8 µM. The TGI [53] was 20.2 µM, the TGI [54] was 29.1 µM and the TGI [55] was 26.1 µM. The TGI [56] was 34.7 µM.
